From patent US20090155209A1, “NOVEL MACROCYCLIC INHIBITORS OF HEPATITIS C VIRUS REPLICATION” (priority 2007, published 2009)

How the values were obtained:
NS3-NS4 [1] = biological target: T1, NS3-NS4 (Hepatitis C virus genotype 1a, UniProt P27958); test: NS3-NS4 activity, IC50 (Example 37, Table 8); format: biochemical
NS3-NS4 [2] = biological target: T1, NS3-NS4; test: cell-based; settings: EC50, NS3-NS4 activity

T1 sequence (P27958 1027-1657): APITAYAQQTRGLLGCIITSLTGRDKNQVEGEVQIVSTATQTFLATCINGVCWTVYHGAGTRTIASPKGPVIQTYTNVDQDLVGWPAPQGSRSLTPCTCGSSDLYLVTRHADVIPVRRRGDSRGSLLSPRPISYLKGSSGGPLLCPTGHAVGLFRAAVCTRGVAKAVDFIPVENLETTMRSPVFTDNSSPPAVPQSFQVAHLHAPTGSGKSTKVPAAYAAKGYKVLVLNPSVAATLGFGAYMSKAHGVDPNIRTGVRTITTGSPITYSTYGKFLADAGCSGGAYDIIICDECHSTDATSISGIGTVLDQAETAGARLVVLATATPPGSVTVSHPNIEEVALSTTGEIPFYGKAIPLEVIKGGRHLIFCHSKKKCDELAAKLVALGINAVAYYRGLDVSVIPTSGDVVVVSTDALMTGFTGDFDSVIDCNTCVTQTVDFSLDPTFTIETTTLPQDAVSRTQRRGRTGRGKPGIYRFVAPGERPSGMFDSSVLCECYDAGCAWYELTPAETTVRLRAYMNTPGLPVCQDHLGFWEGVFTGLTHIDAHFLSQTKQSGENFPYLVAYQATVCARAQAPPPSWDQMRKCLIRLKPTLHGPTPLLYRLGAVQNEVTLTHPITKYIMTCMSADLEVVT
T1 sequence (P27958 1658-1711): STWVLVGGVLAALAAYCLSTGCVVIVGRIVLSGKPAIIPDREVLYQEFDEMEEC

| SMILES | IC50 (NS3-NS4 [1]) [nM] | EC50 (NS3-NS4 [2]) [nM] |
| --- | --- | --- |
| O=C1N[C@]2(C(=O)NS(=O)(=O)C3CC3)C[C@H]2/C=C\CCCCC[C@H](Nc2nc(-c3cccc(F)c3)cs2)C(=O)N2C[C@H](OC(=O)N3Cc4cccc(F)c4C3)C[C@@H]12 [Compound 215] | < 100 | < 100 |
| CN(C(=O)N[C@H]1CCCCC/C=C\[C@@H]2C[C@@]2(C(=O)NS(=O)(=O)c2c(Cl)cccc2Cl)NC(=O)[C@@H]2C[C@@H](OC(=O)N3Cc4cccc(F)c4C3)CN2C1=O)C(C)(C)C [Compound 360] | < 100 | 100 to 1000 |
| O=C1N[C@]2(C(=O)NS(=O)(=O)C3CC3)C[C@H]2/C=C\CCCCC[C@H](NC(=O)N2CCC(F)(F)C2)C(=O)N2C[C@H](OC(=O)N3Cc4cccc(F)c4C3)C[C@@H]12 [Compound 416] | < 100 | 100 to 1000 |
| O=C1N[C@]2(C(=O)NS(=O)(=O)C3CC3)C[C@H]2/C=C\CCCCC[C@H](Nc2nc(-c3ccc(C(F)(F)F)cc3)cs2)C(=O)N2C[C@H](OC(=O)N3Cc4cccc(F)c4C3)C[C@@H]12 [Compound 216] | < 100 | < 100 |
| CCN(C(=O)N[C@H]1CCCCC/C=C\[C@@H]2C[C@@]2(C(=O)NS(=O)(=O)C2CC2)NC(=O)[C@@H]2C[C@@H](OC(=O)N3Cc4cccc(F)c4C3)CN2C1=O)C(C)(C)C [Compound 423] | < 100 | < 100 |
| CC(C)(C)OC(=O)N[C@H]1CCCCC/C=C\[C@@H]2C[C@@]2(C(=O)NS(=O)(=O)Cc2ccc(F)cc2)NC(=O)[C@@H]2C[C@@H](OC(=O)N3Cc4cccc(F)c4C3)CN2C1=O [Compound 509] | < 100 | 100 to 1000 |
| CC(C)(C)OC(=O)N[C@H]1CCCCC/C=C\[C@@H]2C[C@@]2(C(=O)NOc2ccc(Cl)cc2)NC(=O)[C@@H]2C[C@@H](OC(=O)N3Cc4cccc(F)c4C3)CN2C1=O [Compound 707] | < 100 | 1000 to 10000 |
| CC(C)(C)CONC(=O)[C@@]12C[C@H]1/C=C\CCCCC[C@H](NC(=O)OC(C)(C)C)C(=O)N1C[C@H](OC(=O)N3Cc4cccc(F)c4C3)C[C@H]1C(=O)N2 [Compound 720] | < 100 | < 100 |
| CC(C)(C)OC(=O)N[C@H]1CCCCC/C=C\[C@@H]2C[C@@]2(C(=O)NS(=O)(=O)C2(C)CC2)NC(=O)[C@@H]2C[C@@H](OC(=O)N3Cc4cccc(F)c4C3)CN2C1=O [Compound 444] | < 100 | < 100 |
| CN(C(=O)N[C@H]1CCCCC/C=C\[C@@H]2C[C@@]2(C(=O)NS(=O)(=O)c2ccccc2)NC(=O)[C@@H]2C[C@@H](OC(=O)N3Cc4cccc(F)c4C3)CN2C1=O)C(C)(C)C [Compound 303, (2R,6S,13aS,14aR,16aS,Z)-6-(3-tert-butyl-3-methylureido)-5,16-dioxo-14a-(phenylsulfonylcarbamoyl)-1,2,3,5,6,7,8,9,10,11,13a,14,14a,15,16,16a-hexadecahydrocyclopropa[e]pyrrolo[1,2-a][1,4]diazacyclopentadecin-2-yl 4-fluoroisoindoline-2-carboxylate] | < 100 | < 100 |
| CC(C)(C)OC(=O)N[C@H]1CCCCCCC[C@@H]2C[C@@]2(C(=O)NOc2cccc(F)c2)NC(=O)[C@@H]2C[C@@H](OC(=O)N3Cc4cccc(F)c4C3)CN2C1=O [Compound 810] | < 100 | 1000 to 10000 |
| CC(C)CN(C)C(=O)N[C@H]1CCCCC/C=C\[C@@H]2C[C@@]2(C(=O)NS(=O)(=O)C2CC2)NC(=O)[C@@H]2C[C@@H](OC(=O)N3Cc4cccc(F)c4C3)CN2C1=O [Compound 437] | < 100 | < 100 |
| CC(C)(C)OC(=O)N[C@H]1CCCCCCC[C@@H]2C[C@@]2(C(=O)NOc2ccc(F)cc2)NC(=O)[C@@H]2C[C@@H](OC(=O)N3Cc4cccc(F)c4C3)CN2C1=O [Compound 811] | < 100 | 1000 to 10000 |
